One may read the IC50 as the concentration that gives 50% inhibition.

This assay deals with T1, TrkA kinase domain (Homo sapiens, UniProt P04629).
T1 construct: TrkA kinase domain was supplied by SignalChem; purchased SignalChem
T1 sequence (P04629 510-781 limits assumed): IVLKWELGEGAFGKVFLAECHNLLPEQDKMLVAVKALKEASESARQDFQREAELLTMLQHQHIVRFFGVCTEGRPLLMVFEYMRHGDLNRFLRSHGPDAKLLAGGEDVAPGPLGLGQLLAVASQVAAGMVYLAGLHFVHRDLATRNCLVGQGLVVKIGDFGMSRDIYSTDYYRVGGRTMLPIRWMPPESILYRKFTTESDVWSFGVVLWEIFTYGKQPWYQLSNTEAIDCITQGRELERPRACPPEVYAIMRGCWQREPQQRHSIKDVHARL
The assay is described as follows: TrkA Kinase Assay (Trk kinase biochemical assay). The note with it: 33 pM TrkA, 100 nM peptide substrate, 10 µM ATP; 15 minute preincubation; read-out: TrkA WT IC50. On the procedure:
Example 33: TrkA Kinase Assay Protocol
TrkA kinase domain was supplied by SignalChem. Ulight PolyGT peptide substrate and Europium labeled W1024 antiphosphotyrosine antibody were supplied by Perkin Elmer. Assay buffer contained 50 mM HEPES, 10 mM MgCb, 1 mM EGTA, 2 mM DTT, 0.1 mg/mL BSA, and 0.005% w/v tween 20, pH 7.5. Enzyme dilution buffer was made by supplementing assay buffer with 25% w/v glycerol. Antibody dilution buffer contained 20 mM Tris, 137 mM NaCl, and 0.05% w/v tween 20, pH 8.0. Buffers were prepared at room temperature. Enzyme solutions were made on ice, while other solutions were made at room temperature and all subsequent assay steps were performed at room temperature. The TrkA stock solution (0.1 mg/mL) was diluted 156× in enzyme dilution buffer and then 100× in assay buffer. Five pL/well of enzyme solution was added to the assay plate (Greiner black 384-well nonbinding plate), with buffer containing no enzyme added to negative control wells. Test compounds were serially diluted in DMSO at 300× final assay concentration. One μL of each test compound dilution was mixed with 99 pL assay buffer plus ATP (30 μM) and five pL of each test compound-ATP solution was added to w¾13s containing enzyme. Positive control wells contained enzyme and substrates but no test compounds. After a 15 minute enzyme-test compound preincubation, five pL of substrate diluted in assay buffer was added to all wells. Final assay concentrations were 33 pM TrkA, 100 nM peptide substrate, and […]. After a five minute reaction, five pL of 80 mM EDTA was added, followed five minutes later by five pL two nM antibody solution. The ratio of fluorescence at 665 nm vs. 615 nM in each well was determined using a Tecan Infinite Pro F200 plate reader. For each test compound well, percent inhibition w % s calculated (% inliib. =100-100*(test value-neg. control)/(pos. control-neg. control)). Percent inhibition values were fit to a four parameter logistic to determine ICso values for each test compound.
`N#Cc1cnn(-c2cnn3ccc(N4CCC[C@@H]4c4cc(F)ccc4F)nc23)c1` [I-170, (R)-1-(5-(2-(2,5-difluorophenyl)pyrrolidin-1-yl)pyrazolo[J5-a]pyrimidin-3-yl)-1H-pyrazole-4-carbonitrile]: the IC50 is less than 10 nM.

For the compound `COCc1cnn(-c2cnn3ccc(N4CCC[C@@H]4c4cc(F)ccc4F)nc23)c1` [I-226], the IC50 is less than 10 nM.

As for `Cc1cnn(-c2cnn3ccc(N4CCC[C@@H]4c4nc(F)ccc4F)nc23)c1` [I-154, (R)-5-(2-(3,6-difluoropyridin-2-yl)pyrrolidin-1-yl)-3-(4-methyl-1H-pyrazol-1-yl)pyrazolo[1,5-a]pyrimidine], the half-maximal inhibitory concentration (IC50) is less than 10 nM.

Take `Fc1ccc(F)c([C@H]2CCCN2c2ccn3ncc(-n4cc(C5=CCOCC5)cn4)c3n2)c1` [I-175, (R)-5-(2-(2,5-difluorophenyl)pyrrolidin-1-yl)-3-(4-(3,6-dihydro-2H-pyran-4-yl)-1H-pyrazol-1-yl)pyrazolo[1,5-a]pyrimidine]: the IC50 is less than 10 nM.

Regarding `Fc1ccc(F)c([C@H]2CCCN2c2ccn3ncc(-n4cc(-c5ccccc5)cn4)c3n2)c1` [I-149], the IC50 is less than 10 nM.

In the case of `COc1ccc(-c2cnn(-c3cnn4ccc(N5CCC[C@@H]5c5nc(F)ccc5F)nc34)c2)cn1` [I-221, (R)-5-(2-(3,6-difluoropyridin-2-yl)pyrrolidin-1-yl)-3-(4-(6-methoxypyridin-3-yl)-1H-pyrazol-1-yl)pyrazolo[1,5-a]pyrimidine], the IC50 was less than 10 nM.

Consider `COc1ccc(-c2cnn(-c3cnn4ccc(N[C@H](C)c5cc(F)ccc5F)nc34)c2)cn1` [I-220, (R)—N-(1-(2,5-difluor®phenyl)ethyl)-3-(4-(6-methoxypyridin-3-yl)-1H-pyrazoI-1-yl)pyrazolo[1,5-a]pyrimidin-5-amine], for which the half-maximal inhibitory concentration (IC50) was less than 10 nM.

For the compound `Fc1ccc(F)c([C@H]2CCCN2c2ccn3ncc(-n4cc(C(F)(F)F)cn4)c3n2)c1` [I-147], the IC50 is less than 10 nM.

With `Cc1cnn(-c2cnn3ccc(N[C@H](C)c4ccccc4)nc23)c1` [I-196], the IC50 was less than 10 nM.

`Fc1ccc(F)c([C@H]2CCCN2c2ccn3ncc(-n4cc(-c5ccncc5)cn4)c3n2)n1` [I-207]: the IC50 is less than 10 nM.

For `Fc1ccc(F)c([C@H]2CCCN2c2ccn3ncc(-n4cc(-c5cccnc5F)cn4)c3n2)c1` [I-194], the half-maximal inhibitory concentration (IC50) was less than 10 nM.

As for `Fc1ccc(F)c([C@H]2CCCN2c2ccn3ncc(-n4cc(-c5ccncc5F)cn4)c3n2)c1` [I-205], the IC50 was less than 10 nM.

Regarding `Cc1cnn(-c2cnn3ccc(N4CCC[C@@H]4c4nc(N(C)C)ccc4F)nc23)c1` [I-217, (R)-5-fluoro-N,N-dimethyl-6-(1-(3-(4-methyl-1H-pyrazol-1-yl)pyrazolo[1,5-a]pyrimidin-5-yl)pyrrolidin-2-yl)pyridin-2-amine], the IC50 was less than 10 nM.

In the case of `COc1cc(C)nn1-c1cnn2ccc(N3CCC[C@@H]3c3cc(F)ccc3F)nc12` [I-166], the IC50 was more than 500 nM.

With `Cc1noc(C)c1-c1cnn(-c2cnn3ccc(N4CCC[C@@H]4c4cc(F)ccc4F)nc23)c1` [I-157, (R)-4-(1-(5-(2-(2,5-difluorophenyl)pyrrolidin˜yl)pyrazolo[,5-a]pyrimidin-3-yl)-1H-pyrazol-4-yl)-3,5-dimethylisoxazole], the IC50 is less than 10 nM.

Take `Fc1ccc(F)c([C@H]2CCCN2c2ccn3ncc(-n4cc(C5CCOCC5)cn4)c3n2)c1` [I-187, (R)-5-(2-(2,5-difluorophenyi)pyrrolidin-1-yl)-3-(4-(tetrahydro-2H-pyran-4-yl)-1H-pyrazol-1-yl)pyrazolo[1,5-a]pyrimidine]: the IC50 was less than 10 nM.

`CC(=O)c1cnn(-c2cnn3ccc(N4CCC[C@@H]4c4cc(F)ccc4F)nc23)c1` [I-225, (R)-1-(1-(5-(2-(2,5-difluorophenyl)pyrrolidin-1-yl)pyrazolo[1,5-a]pyrimidin-3-yl)-1H-pyrazol-4-yl)ethanone]: the IC50 was less than 10 nM.

As to `Fc1cncc(-c2cnn(-c3cnn4ccc(N5CCC[C@@H]5c5cc(F)ccc5F)nc34)c2)c1` [I-190], the IC50 was less than 10 nM.

As for `CN(C)Cc1cnn(-c2cnn3ccc(N4CCC[C@@H]4c4cc(F)ccc4F)nc23)c1` [I-186, (R)-1-(1-(5-(2-(2,5-difluor®phenyl)pyrrolidin-1-yl)pyrazolo[1,5-a]pyrimidin-3-yl)-1H-pyrazol-4-yl)-N,N-dimethylmethanamine], the IC50 is less than 10 nM.

Regarding `Fc1ccc(F)c([C@H]2CCCN2c2ccn3ncc(-n4cc5c(n4)CCOC5)c3n2)c1` [I-183, (R)-2-(5-(2-(2,5-difluorophenyl)pyrrolidin-1-yl)pyrazolo[1,5-a]pyrimidin-3-yl)-2,4,6,7-tetrahydropyrano[4,3-c]pyrazole], the IC50 is less than 10 nM.

For `NC(=O)c1cnccc1-c1cnn(-c2cnn3ccc(N4CCC[C@@H]4c4cc(F)ccc4F)nc23)c1` [I-203], the 50% inhibitory concentration (IC50) is less than 10 nM.

As to `Cc1nn(-c2cnn3ccc(N4CCC[C@@H]4c4cc(F)ccc4F)nc23)cc1-c1ccccc1` [I-151], the IC50 is less than 10 nM.

On to `Fc1ccc(F)c([C@H]2CCCN2c2ccn3ncc(-n4cc(OC5COC5)cn4)c3n2)c1` [I-179], for which the IC50 is less than 10 nM.

For the compound `Fc1cccnc1[C@H]1CCCN1c1ccn2ncc(-n3cc(-c4ccccc4)cn3)c2n1` [I-192], the IC50 is less than 10 nM.

For the compound `OCCc1cnn(-c2cnn3ccc(N4CCC[C@@H]4c4cc(F)ccc4F)nc23)c1` [I-156], the IC50 is less than 10 nM.

Turning to `Fc1ccc(F)c([C@H]2CCCN2c2ccn3ncc(-n4cc(C5CCOC5)cn4)c3n2)c1` (some centres unmarked) [I-210], the IC50 is less than 10 nM.

With `Fc1ccc(F)c([C@H]2CCCN2c2ccn3ncc(-n4cc(C5=COCC5)cn4)c3n2)c1` [I-212], the concentration for half-maximal inhibition (IC50) was less than 10 nM.

With `NC(=O)c1cnn(-c2cnn3ccc(N4CCC[C@@H]4c4cc(F)ccc4F)nc23)c1` [I-173, (R)-1-(5-(2-(2,5-difluorophenyl)pyrrolidin-1-yl)pyrazolo[1,5-a]pyrimidin-3-yl)-1H-pyrazole-4-carboxamide], the 50% inhibitory concentration (IC50) is less than 10 nM.

Consider `CS(=O)(=O)c1cnn(-c2cnn3ccc(N4CCC[C@@H]4c4cc(F)ccc4F)nc23)c1` [I-181, (R)-5-(2-(2,5-difluorophenyl)pyrrolidin-1-yl)-3-(4-(methylsulfonyl)-1H-pyrazoI-1-yl)pyrazolo[1,5-a]pyrimidine], for which the IC50 is less than 10 nM.

For the compound `Fc1ccc(F)c([C@H]2CCCN2c2ccn3ncc(-n4cncn4)c3n2)c1` [I-168], the IC50 is less than 10 nM.

With `Fc1ccc(F)c([C@H]2CCCN2c2ccn3ncc(-n4cc(-c5ccoc5)cn4)c3n2)c1` [I-189], the IC50 is less than 10 nM.

Turning to `Fc1ccc(F)c([C@H]2CCCN2c2ccn3ncc(-n4cc(-c5ccccc5)cn4)c3n2)n1` [I-193], the IC50 was less than 10 nM.

On to `CNc1ccc(F)c([C@H]2CCCN2c2ccn3ncc(-n4cc(C)cn4)c3n2)n1` [I-218], for which the IC50 is less than 10 nM.

`N#Cc1cncc(-c2cnn(-c3cnn4ccc(N5CCC[C@@H]5c5cc(F)ccc5F)nc34)c2)c1` [I-191]: the IC50 was less than 10 nM.

Regarding `COc1cc(C)n(-c2cnn3ccc(N4CCC[C@@H]4c4cc(F)ccc4F)nc23)n1` [I-167], the IC50 is more than 500 nM.

For the origin of these results see US12486276B2, “5-(2,5-difluorophenyl)pyrrolidin-1-yl)-3-(1H-pyrazol-1-yl)pyrazolo[1,5-a]pyrimidine derivatives and related compounds as Trk kinase inhibitors for treating cancer” (Pyramid Biosciences, Inc., priority 2017, dated 2025).
